Results on one compound are retold here after patent US7759385B2, “4-substituted 1-aminocyclohexane compounds for utilization as ORL1-receptor and mu-opiate receptor ligands” (priority 2002, dated 2010).

The structures appear in SMILES notation.

For this test, the target named is human μ opiate receptor (Homo sapiens, UniProt P35372). The test is described as follows: μ opiate receptor binding assay, membrane preparation of CHO-K1 cells, [3H]-naloxone (or DAMGO) displacement. The following applies: radioligand [3H]-naloxone 1 nmole/l; Cheng-Prusoff.
Chain of human μ opiate receptor (P35372 whole entry): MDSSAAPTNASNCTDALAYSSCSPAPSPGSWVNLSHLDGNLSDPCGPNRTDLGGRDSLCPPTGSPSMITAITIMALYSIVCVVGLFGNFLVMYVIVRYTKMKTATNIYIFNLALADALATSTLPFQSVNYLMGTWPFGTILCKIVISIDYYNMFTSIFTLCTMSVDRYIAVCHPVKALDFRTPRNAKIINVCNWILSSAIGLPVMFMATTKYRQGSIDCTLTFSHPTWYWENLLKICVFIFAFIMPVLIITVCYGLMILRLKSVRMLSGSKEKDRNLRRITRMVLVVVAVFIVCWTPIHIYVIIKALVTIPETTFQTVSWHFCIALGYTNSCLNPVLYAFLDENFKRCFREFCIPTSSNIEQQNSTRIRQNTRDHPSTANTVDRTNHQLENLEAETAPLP

As usually defined, the Ki is the equilibrium dissociation constant of an inhibitor or competing ligand from its target. `CN(C)C1(c2ccccc2)CCC(NC(=O)N2CCC(C3C=Nc4ccc(F)cc43)CC2)CC1` (stereo not shown) [Example 34, 4-(5-fluoro-1H-indol-3-yl)piperidine-1-carboxylic acid-(4-dimethylamino-4-phenylcyclohexyl)-amide] came in with a Ki of 120 nM.
